Results reported in the supplement of paper PMC6045584.
± gives the standard deviation of the averaged measurements.

Each test system was assayed with C=CCNC1=C2C[C@@H](C)C[C@H](OC)[C@H](O)[C@@H](C)/C=C(\C)[C@H](OC(N)=O)[C@@H](OC)/C=C\C=C(/C)C(=O)NC(=CC1=O)C2=O [17-AAG] (assay: surviving fraction relative to DMSO-only wells; higher = less growth inhibition). Details: 50 nM; exposure time: 5 days.
In short: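 Inhibitors at 0.5, 1, 5, 10, 50, 100, 500 and 1000 nM were applied continuously for five days to tumour cell lines seeded in log phase at 250–500 cells per well in 384-well plates 24 hours earlier. Viability was measured by CellTiter-Glo luminescence and expressed as surviving fraction relative to the median of DMSO-only wells. Luminescence was taken after 10 minutes at room temperature.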

Test System	surviving fraction
SCC36 HEADNECK	0.518 ± 0.059
OS25HAL BONE	0.948 ± 0.015
HCC1806 BREAST	0.0273 ± 0.0015
HU09 BONE	0.0283 ± 0.00058
SG43 HEADNECK	0.302 ± 0.069
U2OS BONE	0.627 ± 0.0092
HOSMNG BONE	1.08 ± 0.028
CASKI CERVIX	0.1 ± 0.007
SUM44 BREAST	0.539 ± 0.021
MDAMB231 BREAST	0.534 ± 0.019
CAL51 BREAST	0.361 ± 0.0083
MDAMB436 BREAST	0.318 ± 0.027
HSSYII SYNOVIAL	0.764 ± 0.039
RDES SOFT TISSUE	0.745 ± 0.11
MDAMB157 BREAST	0.233 ± 0.018
CHLA90 AUTONOMIC GANGLIA	0.476 ± 0.012
CADOES1 SOFT TISSUE	0.876 ± 0.11
SG31 HEADNECK	0.642 ± 0.064
SCC47 HEADNECK	0.964 ± 0.053
S68 BREAST	0.0677 ± 0.0091
SNU475 LIVER	0.259 ± 0.02

Test System	surviving fraction
22RV1 PROSTATE	0.687 ± 0.07
SG32 HEADNECK	0.528 ± 0.097
SCC003 HEADNECK	1.01 ± 0.074
JURKAT HAEMATOPOIETIC AND LYMPHOID TISSUE	0.951 ± 0.032
HT1080 SOFT TISSUE	0.389 ± 0.017
CAL120 BREAST	0.226 ± 0.024
MCF7 BREAST	0.429 ± 0.0029
MFM223 BREAST	0.119 ± 0.0098
LNCAP PROSTATE	0.114 ± 0.009
PCI30 HEADNECK	0.302 ± 0.031
OSHN BONE	0.921 ± 0.018
SG28 HEADNECK	0.551 ± 0.11
HOS BONE	0.914 ± 0.024
HUO3N1 BONE	0.591 ± 0.046
BT20 BREAST	0.303 ± 0.061
SJSA1 BONE	0.217 ± 0.02
JIMT1 BREAST	0.0973 ± 0.016
HCC78 LUNG	0.0943 ± 0.0025
NY BONE	0.0967 ± 0.0049
NOS1 BONE	0.379 ± 0.023

Same assay, conditions: 100 nM; exposure time: 5 days

Test System	surviving fraction
SCC36 HEADNECK	0.257 ± 0.012
OS25HAL BONE	0.762 ± 0.13
HCC1806 BREAST	0.0247 ± 0.0015
HU09 BONE	0.0237 ± 0.0031
SG43 HEADNECK	0.074 ± 0.034
U2OS BONE	0.143 ± 0.004
HOSMNG BONE	0.506 ± 0.014
CASKI CERVIX	0.054 ± 0.0053
SUM44 BREAST	0.494 ± 0.014
MDAMB231 BREAST	0.263 ± 0.0075
CAL51 BREAST	0.0827 ± 0.0082
MDAMB436 BREAST	0.344 ± 0.033
HSSYII SYNOVIAL	0.519 ± 0.017
RDES SOFT TISSUE	0.992 ± 0.26
MDAMB157 BREAST	0.214 ± 0.038
CHLA90 AUTONOMIC GANGLIA	0.32 ± 0.018
CADOES1 SOFT TISSUE	0.842 ± 0.1
SG31 HEADNECK	0.302 ± 0.034
SCC47 HEADNECK	0.255 ± 0.032
S68 BREAST	0.064 ± 0.0044
SNU475 LIVER	0.234 ± 0.0059

Test System	surviving fraction
22RV1 PROSTATE	0.336 ± 0.047
SG32 HEADNECK	0.259 ± 0.042
SCC003 HEADNECK	0.396 ± 0.012
JURKAT HAEMATOPOIETIC AND LYMPHOID TISSUE	0.886 ± 0.021
HT1080 SOFT TISSUE	0.204 ± 0.028
CAL120 BREAST	0.119 ± 0.015
MCF7 BREAST	0.329 ± 0.0083
MFM223 BREAST	0.0942 ± 0.006
LNCAP PROSTATE	0.0687 ± 0.012
PCI30 HEADNECK	0.134 ± 0.019
OSHN BONE	0.232 ± 0.071
SG28 HEADNECK	0.322 ± 0.016
HOS BONE	0.442 ± 0.11
HUO3N1 BONE	0.443 ± 0.025
BT20 BREAST	0.282 ± 0.091
SJSA1 BONE	0.106 ± 0.0032
JIMT1 BREAST	0.0685 ± 0.0066
HCC78 LUNG	0.086 ± 0.011
NY BONE	0.11 ± 0.0063
NOS1 BONE	0.215 ± 0.027

Same assay, conditions: 500 nM; exposure time: 5 days

Test System	surviving fraction
SCC36 HEADNECK	0.039 ± 0.0027
OS25HAL BONE	0.146 ± 0.0098
HCC1806 BREAST	0.023 ± 0.001
HU09 BONE	0.0233 ± 0.0029
SG43 HEADNECK	0.03 ± 0.004
U2OS BONE	0.0713 ± 0.0021
HOSMNG BONE	0.14 ± 0.014
CASKI CERVIX	0.0283 ± 0.0025
SUM44 BREAST	0.456 ± 0.017
MDAMB231 BREAST	0.103 ± 0.0031
CAL51 BREAST	0.0253 ± 0.00076
MDAMB436 BREAST	0.328 ± 0.042
HSSYII SYNOVIAL	0.122 ± 0.0035
RDES SOFT TISSUE	0.335 ± 0.042
MDAMB157 BREAST	0.163 ± 0.024
CHLA90 AUTONOMIC GANGLIA	0.175 ± 0.0084
CADOES1 SOFT TISSUE	0.454 ± 0.1
SG31 HEADNECK	0.047 ± 0.0092
SCC47 HEADNECK	0.095 ± 0.002
S68 BREAST	0.057 ± 0.0079
SNU475 LIVER	0.248 ± 0.013

Test System	surviving fraction
22RV1 PROSTATE	0.134 ± 0.0046
SG32 HEADNECK	0.0457 ± 0.0023
SCC003 HEADNECK	0.195 ± 0.017
JURKAT HAEMATOPOIETIC AND LYMPHOID TISSUE	0.132 ± 0.0082
HT1080 SOFT TISSUE	0.148 ± 0.0085
CAL120 BREAST	0.0875 ± 0.0079
MCF7 BREAST	0.271 ± 0.015
MFM223 BREAST	0.08 ± 0.0044
LNCAP PROSTATE	0.0517 ± 0.0021
PCI30 HEADNECK	0.0433 ± 0.0093
OSHN BONE	0.123 ± 0.0085
SG28 HEADNECK	0.0967 ± 0.014
HOS BONE	0.0503 ± 0.0011
HUO3N1 BONE	0.359 ± 0.026
BT20 BREAST	0.261 ± 0.068
SJSA1 BONE	0.0517 ± 0.0055
JIMT1 BREAST	0.062 ± 0.0026
HCC78 LUNG	0.053 ± 0.013
NY BONE	0.068 ± 0.0046
NOS1 BONE	0.0853 ± 0.0021

Same assay, conditions: 1000 nM; exposure time: 5 days

Test System	surviving fraction
SCC36 HEADNECK	0.038 ± 0.0044
OS25HAL BONE	0.141 ± 0.0098
HCC1806 BREAST	0.0243 ± 0.0015
HU09 BONE	0.0233 ± 0.0038
SG43 HEADNECK	0.028 ± 0.0062
U2OS BONE	0.0763 ± 0.0032
HOSMNG BONE	0.11 ± 0.0031
CASKI CERVIX	0.0287 ± 0.0015
SUM44 BREAST	0.464 ± 0.012
MDAMB231 BREAST	0.0973 ± 0.0038
CAL51 BREAST	0.024 ± 0.0005
MDAMB436 BREAST	0.352 ± 0.015
HSSYII SYNOVIAL	0.114 ± 0.0093
RDES SOFT TISSUE	0.16 ± 0.0035
MDAMB157 BREAST	0.147 ± 0.008
CHLA90 AUTONOMIC GANGLIA	0.143 ± 0.0023
CADOES1 SOFT TISSUE	0.129 ± 0.022
SG31 HEADNECK	0.0317 ± 0.0029
SCC47 HEADNECK	0.067 ± 0.0044
S68 BREAST	0.0607 ± 0.0047
SNU475 LIVER	0.23 ± 0.029

Test System	surviving fraction
22RV1 PROSTATE	0.0907 ± 0.011
SG32 HEADNECK	0.034 ± 0.0044
SCC003 HEADNECK	0.0693 ± 0.0095
JURKAT HAEMATOPOIETIC AND LYMPHOID TISSUE	0.0577 ± 0.0015
HT1080 SOFT TISSUE	0.146 ± 0.0015
CAL120 BREAST	0.076 ± 0.0061
MCF7 BREAST	0.275 ± 0.012
MFM223 BREAST	0.095 ± 0.006
LNCAP PROSTATE	0.0523 ± 0.0064
PCI30 HEADNECK	0.0393 ± 0.0015
OSHN BONE	0.108 ± 0.0066
SG28 HEADNECK	0.0863 ± 0.0032
HOS BONE	0.0427 ± 0.0032
HUO3N1 BONE	0.316 ± 0.036
BT20 BREAST	0.278 ± 0.047
SJSA1 BONE	0.0433 ± 0.0011
JIMT1 BREAST	0.0647 ± 0.0033
HCC78 LUNG	0.0667 ± 0.0021
NY BONE	0.0527 ± 0.0045
NOS1 BONE	0.0827 ± 0.008
